Measurements as given in US20090234014A1, “Naphthalene-Disulfonamides Useful for the Treatment of Inflammation” (priority 2005, published 2009).
Like-named read-outs stand apart in the source and are kept apart here.

Target: T1, mPGES-1 (Homo sapiens, UniProt O14684)
T1 construct: made in house; host or cells: E. coli (membrane fraction)
T1 sequence (O14684 1-152): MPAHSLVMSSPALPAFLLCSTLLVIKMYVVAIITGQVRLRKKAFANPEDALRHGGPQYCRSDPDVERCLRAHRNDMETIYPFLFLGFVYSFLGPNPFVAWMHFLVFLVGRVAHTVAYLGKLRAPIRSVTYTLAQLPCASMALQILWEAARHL
Assay: mPGES-1 assay: conversion of PGH2 to PGE2, PGE2 measured by HPLC
Assay type: biochemical
Details: mPGES-1 expressed in E. coli, membrane fraction
Method: In the assay mPGES-1 catalyses the reaction where the substrate PGH2 is converted to PGE2. mPGES-1 is expressed in E. coli and the membrane fraction is dissolved in 20 mM NaPi-buffer pH 8.0 and stored at −80° C. In the assay mPGES-1 is dissolved in 0.1M KPi-buffer pH 7.35 with 2.5 mM glutathione. The stop solution consists of H2O/MeCN (7/3), containing FeCl2 (25 mM) and HCl (0.15 M). The assay is performed at room temperature in 96-well plates. Analysis of the amount of PGE2 is performed with reversed phase HPLC (Waters 2795 equipped with a 3.9×150 mm C18 column). The mobile phase consists of H2O/MeCN (7/3), containing TFA (0.056%), and absorbance is measured at 195 nm with a Waters 2487 UV-detector.
The following is added chronologically to each well: • 1. 100 μL mPGES-1 in KPi-buffer with glutathione. Total protein concentration: 0.02 mg/mL. • 2. 1 μL inhibitor in DMSO. Incubation of the plate at room temperature for 25 minutes. • 3. 4 μL of a 0.25 mM PGH2 solution. Incubation of the plate at room temperature for 60 seconds. • 4. 100 μL stop solution. • 180 μL per sample is analyzed with HPLC.

[1] = 25 min preincubation with inhibitor, 60 s with PGH2, room temperature, read-out: IC50 values

Structure (SMILES) | IC50 [1] [µM] | IC50 (stated as 10 μM or below, read-out: concentration exhibiting 50% inhibition of mPGES-1) [µM]
Cc1cc(C)c(NS(=O)(=O)c2cc(S(=O)(=O)Nc3c(C)cc(C)cc3C)c3cc(O)ccc3c2)c(C)c1 [Example 3, N^1,N^3-di(mesityl)-7-hydroxynaphthalene-1,3-disulfonamide] | 1.1 | 
O=S(=O)(Nc1ccccc1C(F)(F)F)c1cc(S(=O)(=O)Nc2ccccc2C(F)(F)F)c2cc(O)ccc2c1 [Example 9, N^1,N^3-di(2-trifluoromethylphenyl)-7-hydroxynaphthalene-1,3-disulfonamide] | 4.1 | 
O=S(=O)(Nc1ccccc1)c1cc(S(=O)(=O)Nc2ccccc2)c2cc(O)ccc2c1 [N^1,N^3-Diphenyl-7-hydroxynaphthalene-1,3-disulfonamide] |  | ≤ 10
Cc1ccc(Cl)cc1NS(=O)(=O)c1cc(S(=O)(=O)Nc2cc(Cl)ccc2C)c2ccccc2c1 [Example 16, N^1,N^3-di(5-chloro-2-methylphenyl)naphthalene-1,3-disulfonamide] | 1.3 | 

The next lines start with the values.

IC50 [1] [µM] | IC50 (stated as 10 μM or below, read-out: concentration exhibiting 50% inhibition of mPGES-1) [µM] | Structure (SMILES)
1.7 |  | Cc1cccc(C)c1NS(=O)(=O)c1cc(S(=O)(=O)Nc2c(C)cccc2C)c2ccccc2c1 [Example 11, N^1,N^3-di(2,6-xylyl)naphthalene-1,3-disulfonamide]
1.7 |  | Cc1c(Cl)cccc1NS(=O)(=O)c1cc(S(=O)(=O)Nc2cccc(Cl)c2C)c2ccccc2c1 [Example 15, N^1,N^3-di(3-chloro-2-methylphenyl)naphthalene-1,3-disulfonamide]
3.7 |  | Cc1ccc(NS(=O)(=O)c2cc(S(=O)(=O)Nc3ccc(C)cc3)c3ccccc3c2)cc1 [Example 20, N^1,N^3-di(p-tolyl)naphthalene-1,3-disulfonamide]
1.2 |  | Cc1ccc(Cl)cc1NS(=O)(=O)c1cc(S(=O)(=O)Nc2cc(Cl)ccc2C)c2cc(O)ccc2c1 [Example 7, N^1,N^3-di(5-chloro-2-methylphenyl)-7-hydroxynaphthalene-1,3-disulfonamide]
